# Test results as given in article PMC10175918 (Communications Biology, 2023).
# Read-outs that look alike come from different tables or passages of the source.
# What was measured:
# Test in all cases: TGFα-shedding assay-based GPCR screening with chimeric Gα subunit proteins
# Type in all cases: cell-based
# [1] = target: T1, 348 GPCRs (Homo sapiens, UniProt P04201)
# T1 construct: expressed in transfected cells; host or cells: HEK293A
# T1 sequence (P04201 1-325): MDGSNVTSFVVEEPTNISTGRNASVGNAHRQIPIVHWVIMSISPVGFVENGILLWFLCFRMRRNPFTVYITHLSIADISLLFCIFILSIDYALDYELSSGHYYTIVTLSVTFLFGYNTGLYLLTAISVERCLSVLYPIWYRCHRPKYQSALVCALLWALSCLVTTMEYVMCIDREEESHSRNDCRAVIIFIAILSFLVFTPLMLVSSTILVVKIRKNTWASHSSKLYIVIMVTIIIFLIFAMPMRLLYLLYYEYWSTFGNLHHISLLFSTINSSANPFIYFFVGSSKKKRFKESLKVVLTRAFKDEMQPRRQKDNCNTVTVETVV
# [2] = target: 348 GPCRs (Homo sapiens, UniProt P28223); conditions: 10µM, Favipiravir 100μM
# 348 GPCRs (Homo sapiens, UniProt P28223), sequence (P28223 whole entry): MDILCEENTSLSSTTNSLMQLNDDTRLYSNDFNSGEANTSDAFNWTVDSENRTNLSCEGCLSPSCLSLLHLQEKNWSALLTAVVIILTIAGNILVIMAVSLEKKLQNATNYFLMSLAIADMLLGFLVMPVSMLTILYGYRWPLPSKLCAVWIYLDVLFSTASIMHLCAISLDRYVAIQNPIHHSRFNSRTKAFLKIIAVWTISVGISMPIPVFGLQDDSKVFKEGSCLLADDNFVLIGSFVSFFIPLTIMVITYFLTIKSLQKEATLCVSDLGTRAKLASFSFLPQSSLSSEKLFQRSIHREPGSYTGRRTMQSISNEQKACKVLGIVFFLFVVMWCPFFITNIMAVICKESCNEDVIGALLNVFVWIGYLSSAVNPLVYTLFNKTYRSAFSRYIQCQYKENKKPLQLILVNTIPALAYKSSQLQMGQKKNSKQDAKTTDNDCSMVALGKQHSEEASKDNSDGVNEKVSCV
# [3] = target: T2, 348 GPCRs (Homo sapiens, UniProt P32239); conditions: 10µM, Favipiravir 100μM
# T2 sequence (P32239 1-447): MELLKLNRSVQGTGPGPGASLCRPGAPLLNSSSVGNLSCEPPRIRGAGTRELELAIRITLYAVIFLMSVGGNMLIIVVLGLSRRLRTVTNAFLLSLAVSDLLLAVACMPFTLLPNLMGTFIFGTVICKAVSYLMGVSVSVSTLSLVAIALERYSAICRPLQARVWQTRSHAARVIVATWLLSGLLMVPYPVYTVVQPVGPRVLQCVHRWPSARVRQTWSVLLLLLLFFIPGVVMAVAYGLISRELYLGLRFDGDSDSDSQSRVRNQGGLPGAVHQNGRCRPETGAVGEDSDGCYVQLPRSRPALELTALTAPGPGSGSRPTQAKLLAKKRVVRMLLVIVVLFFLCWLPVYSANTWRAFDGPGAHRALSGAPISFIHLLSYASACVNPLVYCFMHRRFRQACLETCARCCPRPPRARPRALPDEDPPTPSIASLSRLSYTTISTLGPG
# [4] = target: T3, 348 GPCRs (Homo sapiens, UniProt P34998)
# T3 construct: expressed in transfected cells; host or cells: HEK293A
# T3 sequence (P34998 24-415): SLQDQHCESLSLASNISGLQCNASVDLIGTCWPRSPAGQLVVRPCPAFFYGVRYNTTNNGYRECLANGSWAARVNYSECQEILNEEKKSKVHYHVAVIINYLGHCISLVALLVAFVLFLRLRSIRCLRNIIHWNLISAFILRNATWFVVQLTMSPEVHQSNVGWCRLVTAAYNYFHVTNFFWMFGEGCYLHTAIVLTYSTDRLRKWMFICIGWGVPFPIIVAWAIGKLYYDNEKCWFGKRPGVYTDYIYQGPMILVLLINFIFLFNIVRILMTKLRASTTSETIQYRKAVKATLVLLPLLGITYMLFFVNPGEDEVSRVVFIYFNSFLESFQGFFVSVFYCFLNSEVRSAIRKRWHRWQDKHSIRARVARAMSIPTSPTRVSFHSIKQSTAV
# [5] = target: T4, 348 GPCRs (Homo sapiens, UniProt P48039); conditions: 10µM, Favipiravir 100μM
# T4 construct: expressed in transfected cells; host or cells: HEK293A
# T4 sequence (P48039 whole entry): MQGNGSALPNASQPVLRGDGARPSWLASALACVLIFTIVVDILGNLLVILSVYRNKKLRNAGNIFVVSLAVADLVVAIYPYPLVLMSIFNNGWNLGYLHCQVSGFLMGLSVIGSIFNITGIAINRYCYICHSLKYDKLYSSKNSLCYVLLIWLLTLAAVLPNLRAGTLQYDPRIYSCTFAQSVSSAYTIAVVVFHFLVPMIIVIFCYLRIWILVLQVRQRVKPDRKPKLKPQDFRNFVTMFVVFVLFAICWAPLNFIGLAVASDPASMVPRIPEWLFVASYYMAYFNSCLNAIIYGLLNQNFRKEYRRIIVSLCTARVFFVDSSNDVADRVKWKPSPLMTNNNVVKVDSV
# [6] = target: T5, 348 GPCRs (Homo sapiens, UniProt Q02643); conditions: 10µM, Favipiravir 100μM
# T5 construct: expressed in transfected cells; host or cells: HEK293A
# T5 sequence (Q02643 23-423): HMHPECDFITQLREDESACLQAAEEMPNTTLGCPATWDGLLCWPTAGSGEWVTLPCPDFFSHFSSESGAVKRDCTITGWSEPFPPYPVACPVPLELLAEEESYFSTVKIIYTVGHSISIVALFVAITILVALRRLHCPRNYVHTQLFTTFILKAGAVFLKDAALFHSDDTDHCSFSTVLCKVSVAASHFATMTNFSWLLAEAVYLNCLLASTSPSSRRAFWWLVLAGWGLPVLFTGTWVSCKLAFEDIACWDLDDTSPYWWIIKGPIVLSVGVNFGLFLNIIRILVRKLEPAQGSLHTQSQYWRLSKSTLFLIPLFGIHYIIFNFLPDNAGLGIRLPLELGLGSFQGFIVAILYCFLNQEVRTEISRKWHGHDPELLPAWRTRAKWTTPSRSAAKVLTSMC
# [7] = target: T6, 348 GPCRs (Homo sapiens, UniProt Q96LB0); conditions: 10µM, Favipiravir 100μM
# T6 construct: expressed in transfected cells; host or cells: HEK293A
# T6 sequence (Q96LB0 whole entry): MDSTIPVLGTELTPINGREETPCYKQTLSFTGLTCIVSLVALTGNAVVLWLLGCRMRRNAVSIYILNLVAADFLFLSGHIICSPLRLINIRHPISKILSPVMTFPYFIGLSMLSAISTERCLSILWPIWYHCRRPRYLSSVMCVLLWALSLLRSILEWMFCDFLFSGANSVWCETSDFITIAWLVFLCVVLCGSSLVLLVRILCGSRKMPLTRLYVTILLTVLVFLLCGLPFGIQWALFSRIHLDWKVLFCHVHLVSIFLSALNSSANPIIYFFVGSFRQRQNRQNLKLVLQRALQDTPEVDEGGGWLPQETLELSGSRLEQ
# [8] = target: T7, 348 GPCRs (Homo sapiens, UniProt Q99527); conditions: 10µM, Favipiravir 100μM
# T7 construct: expressed in transfected cells; host or cells: HEK293A
# T7 sequence (Q99527 whole entry): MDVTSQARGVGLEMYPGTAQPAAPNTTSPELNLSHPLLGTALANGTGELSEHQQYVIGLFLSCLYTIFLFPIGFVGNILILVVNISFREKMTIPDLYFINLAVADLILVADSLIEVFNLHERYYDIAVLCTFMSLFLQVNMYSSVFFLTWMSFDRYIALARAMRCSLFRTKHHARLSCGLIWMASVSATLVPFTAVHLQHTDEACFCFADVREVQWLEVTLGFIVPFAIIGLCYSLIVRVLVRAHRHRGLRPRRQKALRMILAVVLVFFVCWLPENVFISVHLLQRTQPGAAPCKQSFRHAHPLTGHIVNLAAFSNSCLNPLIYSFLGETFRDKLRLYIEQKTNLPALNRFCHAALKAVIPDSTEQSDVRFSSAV
# [9] = target: T8, 348 GPCRs (Homo sapiens, UniProt Q9H244)
# T8 construct: expressed in transfected cells; host or cells: HEK293A
# T8 sequence (Q9H244 whole entry): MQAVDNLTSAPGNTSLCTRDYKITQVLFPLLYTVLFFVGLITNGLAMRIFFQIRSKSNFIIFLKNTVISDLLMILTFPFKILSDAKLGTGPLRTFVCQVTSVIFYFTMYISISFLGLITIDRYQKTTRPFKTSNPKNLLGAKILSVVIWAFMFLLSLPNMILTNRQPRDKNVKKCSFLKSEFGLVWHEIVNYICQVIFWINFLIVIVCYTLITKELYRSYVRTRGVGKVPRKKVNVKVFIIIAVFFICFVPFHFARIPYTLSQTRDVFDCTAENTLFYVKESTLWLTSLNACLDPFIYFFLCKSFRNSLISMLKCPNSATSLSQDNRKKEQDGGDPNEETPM
# [10] = target: T9, 348 GPCRs (Homo sapiens, UniProt Q9Y271)
# T9 construct: expressed in transfected cells; host or cells: HEK293A
# T9 sequence (Q9Y271 1-337): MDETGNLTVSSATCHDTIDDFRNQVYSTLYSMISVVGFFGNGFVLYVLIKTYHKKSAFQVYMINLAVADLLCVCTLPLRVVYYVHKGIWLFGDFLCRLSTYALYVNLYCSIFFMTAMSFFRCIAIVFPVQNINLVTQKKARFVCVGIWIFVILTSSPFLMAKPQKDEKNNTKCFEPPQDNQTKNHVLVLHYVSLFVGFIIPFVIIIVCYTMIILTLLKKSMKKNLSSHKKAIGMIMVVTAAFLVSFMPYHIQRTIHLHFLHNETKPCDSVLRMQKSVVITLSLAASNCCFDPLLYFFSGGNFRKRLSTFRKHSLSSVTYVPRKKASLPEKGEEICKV
# [11] = GPCR MAS1 (MAS1 oncogene), read-out: % GPCR activation compared to TPA
# [12] = 5-HT2A (5-hydroxytryptamine receptor 2A), read-out: % GPCR activation compared to TPA
# [13] = CCKBR (cholecystokinin B receptor), read-out: % GPCR activation compared to TPA
# [14] = GPCR CRHR1 (corticotropin releasing hormone receptor 1), read-out: % GPCR activation compared to TPA
# [15] = MT1R (melatonin receptor type 1A), read-out: % GPCR activation compared to TPA
# [16] = GHRHR (growth hormone releasing hormone receptor), read-out: % GPCR activation compared to TPA
# [17] = MRGPRX3 (MAS-related GPR, member X3), read-out: % GPCR activation compared to TPA
# [18] = GPER (G protein-coupled estrogen receptor 1), read-out: % GPCR activation compared to TPA
# [19] = GPCR P2Y12 (purinergic receptor P2Y, G-protein coupled, 12), read-out: % GPCR activation compared to TPA
# [20] = GPCR CysLT1 (cysteinyl leukotriene receptor 1), read-out: % GPCR activation compared to TPA
# [21] = read-out: % GPCR activation compared to TPA, GPCR MAS1 (MAS1 oncogene)
# [22] = read-out: % GPCR activation compared to TPA, 5-HT2A (5-hydroxytryptamine receptor 2A)
# [23] = read-out: % GPCR activation compared to TPA, CCKBR (cholecystokinin B receptor)
# [24] = read-out: % GPCR activation compared to TPA, GPCR CRHR1 (corticotropin releasing hormone receptor 1)
# [25] = read-out: % GPCR activation compared to TPA, MT1R (melatonin receptor type 1A)
# [26] = read-out: % GPCR activation compared to TPA, GHRHR (growth hormone releasing hormone receptor)
# [27] = read-out: % GPCR activation compared to TPA, MRGPRX3 (MAS-related GPR, member X3)
# [28] = read-out: % GPCR activation compared to TPA, GPER (G protein-coupled estrogen receptor 1)
# [29] = read-out: % GPCR activation compared to TPA, GPCR P2Y12 (purinergic receptor P2Y, G-protein coupled, 12)
# [30] = read-out: % GPCR activation compared to TPA, GPCR CysLT1 (cysteinyl leukotriene receptor 1)
smiles,measurement,setting,value
N#C[C@@]1(c2ccc3c(N)ncnn23)O[C@H](CO)[C@@H](O)[C@H]1O [GS441524],activation at 10 µM,[1]; [11],-19.1%
same,activation at 100 µM,[2]; [12],-1.21%
same,activation at 100 µM,[3]; [13],6.14%
same,activation at 10 µM,[4]; [14],0.467%
same,activation at 10 µM,[5]; [15],0.391%
same,activation at 100 µM,[6]; [16],1.38%
same,activation at 100 µM,[7]; [17],-0.726%
same,activation at 10 µM,[8]; [18],-3.06%
same,activation at 10 µM,[9]; [19],-4.31%
same,activation at 10 µM,[10]; [20],-1.14%
CCC(CC)COC(=O)[C@H](C)N[P@](=O)(OC[C@H]1O[C@@](C#N)(c2ccc3c(N)ncnn23)[C@H](O)[C@@H]1O)Oc1ccccc1 [remdesivir],activation at 10 µM,[1]; [21],21.3%
same,activation at 100 µM,[2]; [22],4.22%
same,activation at 100 µM,[3]; [23],7.72%
same,activation at 10 µM,[4]; [24],2.05%
same,activation at 10 µM,[5]; [25],0.542%
same,activation at 100 µM,[6]; [26],5.92%
same,activation at 100 µM,[7]; [27],-0.608%
same,activation at 10 µM,[8]; [28],1.6%
same,activation at 10 µM,[9]; [29],0.718%
same,activation at 10 µM,[10]; [30],0.442%
CC(C)OC(=O)[C@H](C)N[P@](=O)(OC[C@H]1O[C@@H](n2ccc(=O)[nH]c2=O)[C@](C)(F)[C@@H]1O)Oc1ccccc1 [sofosbuvir],activation at 10 µM,[1]; [21],2.48%
same,activation at 100 µM,[2]; [22],-1.66%
same,activation at 100 µM,[3]; [23],-2.44%
same,activation at 10 µM,[4]; [24],1.15%
same,activation at 10 µM,[5]; [25],-4.49%
same,activation at 100 µM,[6]; [26],-2.19%
same,activation at 100 µM,[7]; [27],0.522%
same,activation at 10 µM,[8]; [28],-0.815%
same,activation at 10 µM,[9]; [29],-2.59%
same,activation at 10 µM,[10]; [30],-1.58%
"NC(=O)c1nc(F)cnc1O [favipiravir, 6-fluoro-3-hydroxy-2-pyrazinecarboxamide]",activation at 100 µM,"[1]; GPCR MAS1 (MAS1 oncogene), 100μM, read-out: % GPCR activation compared to TPA",-7.84%
same,activation at 100 µM,[2]; [12],2.2%
same,activation at 100 µM,[3]; [13],4.12%
same,activation at 100 µM,"[4]; GPCR CRHR1 (corticotropin releasing hormone receptor 1), 100μM, read-out: % GPCR activation compared to TPA",-0.37%
same,activation at 10 µM,[5]; [15],-1.27%
same,activation at 100 µM,[6]; [16],6.96%
same,activation at 100 µM,[7]; [17],-0.33%
same,activation at 10 µM,[8]; [18],-2.76%
same,activation at 100 µM,"[9]; GPCR P2Y12 (purinergic receptor P2Y, G-protein coupled, 12), 100μM, read-out: % GPCR activation compared to TPA",-4.09%
same,activation at 100 µM,"[10]; GPCR CysLT1 (cysteinyl leukotriene receptor 1), 100μM, read-out: % GPCR activation compared to TPA",-0.478%
CC(C)C(=O)OC[C@H]1O[C@@H](n2ccc(NO)nc2=O)[C@H](O)[C@@H]1O [molnupiravir],activation at 10 µM,[1]; [11],-15.3%
same,activation at 100 µM,[2]; [12],-0.697%
same,activation at 100 µM,[3]; [13],-2.83%
same,activation at 10 µM,[4]; [14],1.11%
same,activation at 10 µM,[5]; [15],-4.07%
same,activation at 100 µM,[6]; [16],-0.966%
same,activation at 100 µM,[7]; [17],-1.5%
same,activation at 10 µM,[8]; [18],-1.26%
same,activation at 10 µM,[9]; [19],-6.75%
same,activation at 10 µM,[10]; [20],-1.72%
